Data set [1] can be described thus: Immunization of mice with the peptides: body weight. It counts as in vivo. The following applies: mice immunized with FCA emulsion, 3 animals per group. As to the method: (§1) Each peptide synthesized in Example 2 was dissolved in PBS so as to make the concentration 200 μg/ml, the solution was mixed with the same volume of FCA, and the mixture after emulsification was subcutaneously injected into mice at the back (3 animals per group). 4 weeks later, the antibody titer in the serum or saliva against the peptide was assayed by an ELISA method.

The test system of data set [2] is fimbrial protein of Porphyomonas gingivalis. Description: Immunization of mice with the peptides: antibody titer in serum or saliva by ELISA. The class given is in vivo. Particulars: A405 value by the ELISA method, with FCA, 4 weeks later. As to the method: as §1
The fimbrial protein of Porphyomonas gingivalis was adsorbed on each well of a 96-well microtiter plate for ELISA, and a dilution of the serum with PBS (1/10^5), a dilution of the saliva with PBS (1/500), or a solution obtained by adding each peptide or the fimbrial protein of Porphyomonas gingivalis is to the dilution of the serum or saliva to cause absorption was put in the well. Reaction was conducted at 37° C. for 1 hour, and then assay was conducted by a usual ELISA method.
Background: ELISA stands for enzyme-linked immunosorbent assay.

A short description of data set [3]: Inhibitory test of Porphyomonas gingivalis infection in Golden hamster with vaccine: body weight. It counts as in vivo, Golden hamsters. Particulars: vaccine of Example 3, subcutaneous at the oral cavity, fed for 80 days. As to the method: (§2) 3-week-old Golden hamsters (one group consisting of 6 animals, 5 groups in total, 1 Porphyomonas gingivalis strain 381 fimbria immunity induction group, 2 Peptide 1 immunity induction group, 3 Peptide 7 immunity induction group, 4 Nonimmunity induction group, 5 Nonimmunity noninduction group) were used.
(§3) Each of the vaccines of the invention was subcutaneously administered at the oral cavity in amounts of 0.2 ml portions on the third week and the fourth week after the birth, and 0.4 ml on the fifth week.
(§4) After the Golden hamsters were fed for 80 days, 1 ml/kg portions of 0.5% pilocarpine hydrochloride were intraperitoneally administered, and saliva was taken from them. Thereafter, blood was taken from the abdominal aorta of each animal, and serum was obtained therefrom. Further, a bone preparation from each hamster was produced by amputating the head, heat treating the head using an autoclave, removing the muscle part, and washing with water and drying the remaining matter.

A further data set deals with Porphyomonas gingivalis. It counts as in vivo, guinea pig. Particulars: for inhibitory effect against infection with Porphyomonas gingivalis: guinea pig, in words; for Degree of redness Longest length × shortest length / Inhibition rate: with FCA; for Degree of redness Longest length × shortest length: 500 μg/animal, inoculation on the 28th day, 24 hours later; for Inhibition rate: relative to the FIA inoculation group. The procedure:
Each peptide synthesized in Example 2 was administered together with FIA (Freund's incomplete adjuvant) or FCA (Freund's complete adjuvant), as a water-in-oil type emulsifier, into the sole of the right hind leg of a guinea pig in an amount of 500 μg/animal/time. Thereafter, on the 28th day, 200 μl of a suspension of 10^11 cells/ml of the bacterium was intracutaneously inoculated into the right flank of the same guinea pig after the hair at the region was shaved. 24 hours later, the longest length and shortest length of the resultant red coloring were measured, and the product of them was calculated. From the product was calculated the inhibition rate.

In the next data set the test system is the peptide. Description: Inhibitory test of Porphyomonas gingivalis infection in Golden hamster with vaccine: antibody titer in serum and saliva. The class given is in vivo, Golden hamsters. Particulars: for Antibody titer Saliva (1/500) / Antibody titer Serum (1/10^5): A405 value by the ELISA method; for antibody titer in the sera and saliva: in words. The procedure: as §2, §3
(§5) Induction of periodontal disease was conducted by culturing Porphyomonas gingivalis strain 381 in GAM broth at 37° C. for 20 hours, collecting the cells by centrifugation, suspending the cells in phisiological saline so that the cell concentration could be 10^9 cells/ml, administering 0.2 ml portions of the suspension into the oral cavity of the Golden hamsters for 7 days starting from the sixth week after the birth, and thereafter, administering the suspension once a week.
as §4
The saliva and serum were assayed for antibody titer against the peptide.

The subject of data set [4] is anti-Porphyomonas gingivalis fimbria antibodies contained in sera of patients with periodontal disease. Briefly: Assay of the specific antibody in serum using plates coated with peptide-modified BSA (ELISA). Particulars: average absorbance (405 nm) of 3 specimens, serum diluted 100 times. The class given is binding, human. The procedure:
One mg of each peptide synthesized in Example 2 was dissolved in 1 ml of 0.1 M phosphate buffered saline (PBS, pH 6.0), 5 mg of sulfated SMCC (made by Pierce Co.) was added, and the mixture was incubated at 30° C. for 30 minutes to conduct maleimidization, and then subjected to Sephadex G-10 column chromatography, and the first eluate fraction was collected. 7 mg of bovine serum albumin (BSA: made by Wako Pure Chemical Industries, Ltd.) was dissolved in 1 ml of 0.1 M phosphate buffer (pH 6.0), 10 mM EDTA, the solution was mixed with the above maleimidized peptide, and the mixture was subjected to reaction at 30° C. for 1 hour. The resultant peptide-modified BSA was subjected to Sephadex G-50 column chromatography, and the first eluate fraction was collected as a plate-preparing antigen solution.
Then, six kind of peptides were synthesized after the process of Example 2, and a plate-preparing antigen solution was similarly prepared as a control.
Each of the resultant antigen solutions was diluted with 0.1 M carbonate buffer (pH 9.6), 150 mM NaCl to give 100 ml of a solution. 10 μl/well of the solution was put in a polystyrene-made microtiter plate (Immunoplate II; maxisorp type; made by Nunc Co.) and left alone at 4° C. overnight, and washing was conducted three times each with 200 μl/well of PBS, using a microtiter automatic washer (hereafter abbreviated as washer; made by Bio-Rad Laboratories). 250 μl/well of PBS containing 0.1% gelatin (made by Nitta Gelatin Co., Ltd.) was added and the mixture was allowed to stand at 4° C. overnight to block the plate. The blocking solution was removed by absorption, and the plate was dried by a vacuum dryer, put in an aluminum bag, and after sealing the bag, kept at 4° C. for the following assay.
Sera of patients of periodontal disease (n=3) and normal subjects (n=3) were used as samples, and each serum was diluted 100 times with PBS containing 10% bovine serum. 100 μl portions of these dilutions were added to the plates coated with various antigens, respectively, and incubation was conducted at 37° C. for 1 hour. Each plate was washed three times with 200 μl of PBST using the washer, 100 μl of a commercially available […] (diluted 10^3 times)/0.1% Casein/PBST was added as a secondary antibody, and incubation was conducted again at 37° C. for 1 hour. The plate was washed in the same manner as above, 100 μl of an o-phenylenediamine solution was added, incubation was conducted at 37° C. for 30 minutes, 100 μl of 0.1 N sulfuric acid was added to stop the reaction, and then, absorbance (405 nm) was measured by a microplate reader (made by Bio-Rad Laboratories) using the reaction well of no addition of the specimen as a control. The measures values are average absorbances of 3 specimens each of the patient group of periodontal disease and the normal subject group.

Data set [5] has as its system Porphyomonas gingivalis strain 381. Description: Inhibitory test of Porphyomonas gingivalis infection in Golden hamster with vaccine: resorption of alveolar bone. The following applies: for degree of resorption of the alveolar bone: in words; for Absorbance of alveolar bone (average): vaccine of Example 3, induction with Porphyomonas gingivalis strain 381, 80 days. It counts as in vivo, Golden hamsters.
Description: The effects of vaccine on Peptide 1 and Peptide 7 selected from the results of Test example 1, Test example 2, Test example 3, Test example 4 and Test example 5 were examined according to the following method using degree of resorption of alveolar bone and antibody titer as measures, using the vaccine described in Example 3.
as §2, §3, §5
After the start of the cell administration, the animals were allowed to freely ingest Diet 2000 (made by Funabashi Nojo) as a dental caries-inducing feed and water.
as §4
The bone preparation was assayed for degree of resorption of the alveolar bone of a molar according to the method^f) of Tsukiyama et al. (Koku Eisei Kaishi (Jornal of Hygiene of Oral Cavity) 28, No. 3, 149, 1978).
f) The bone preparation was stained with 20% silver nitrate solution for 5 minutes, and after water washing and drying, the distance from the enamel-cement junction to the alveolar bone edge was measured by a stereoscopic microscope (magnification 15-fold).

The values that follow come from US6160087A, “Peptides having an amino acid sequence from the fimbrial protein of porphyromonas gingivalis and their uses” (priority 1993, dated 2000).

Regarding “Peptide 1: synthetic peptide, epitope of the 41 kD fimbrial subunit protein of Porphyomonas gingivalis; sequence in Table 1, not shown (ENATKVEDIK)”, the “Body weight (Average g)” value in data set [1] was found to be 25 g. Moreover, in data set [2], the “Antibody titer Saliva (1/500) After absorption” value is 0.11, the “Antibody titer Saliva (1/500) Before absorption” value came to 0.61, the “Antibody titer Serum (1/10^5) After absorption” value is recorded as 0.19 and the “Antibody titer Serum (1/10^5) Before absorption” value is 0.62. Moreover, in data set [3], the “Body weight (at the time of production of bone preparation) (average g)” value amounted to 124 g. Also, in the data set on Porphyomonas gingivalis, the “inhibitory effect against infection with Porphyomonas gingivalis” value is listed as “strong inhibitory effect”, the “Degree of redness Longest length × shortest length” value is 660 mm^2 and the Inhibition rate was found to be 66.1%. In the data set on the peptide, the “Antibody titer Saliva (1/500)” value worked out at 0.62; the “Antibody titer Serum (1/10^5)” value came to 0.65; the “antibody titer in the sera and saliva” value is “increse of antibody titer”. Moreover, in data set [4], the “Antibody titer, Normal subject group” value turned out to be 0.145 and the “Antibody titer, Patient group with peridontal disease” value is given as 1.016. In addition, in data set [5], the “degree of resorption of the alveolar bone” value was “inhibition of absoption of the alveolar bone” and the “Absorbance of alveolar bone (average)” value worked out at 48.
Regarding “Peptide 7: synthetic peptide, epitope of the 41 kD fimbrial subunit protein of Porphyomonas gingivalis; sequence in Table 1, not shown (GFYVLENDYS)”, in data set [1], the “Body weight (Average g)” value is given as 23 g. Moreover, in data set [2], the “Antibody titer Saliva (1/500) After absorption” value amounted to 0.15, the “Antibody titer Saliva (1/500) Before absorption” value was 0.69, the “Antibody titer Serum (1/10^5) After absorption” value was 0.14 and the “Antibody titer Serum (1/10^5) Before absorption” value worked out at 0.67. Also, in data set [3], the “Body weight (at the time of production of bone preparation) (average g)” value came out at 123 g. For the same substance, in the data set with Porphyomonas gingivalis, the “inhibitory effect against infection with Porphyomonas gingivalis” value is reported as “strong inhibitory effect”, the “Degree of redness Longest length × shortest length” value is given as 240 mm^2 and the Inhibition rate is on record as 87.7%. Also, in the data set on the peptide, the “Antibody titer Saliva (1/500)” value was found to be 0.79; the “Antibody titer Serum (1/10^5)” value is on record as 0.71; the “antibody titer in the sera and saliva” value is reported as “increse of antibody titer”. In data set [4], the “Antibody titer, Normal subject group” value came out at 0.226 and the “Antibody titer, Patient group with peridontal disease” value turned out to be 1.224. For the same substance, in data set [5], the “degree of resorption of the alveolar bone” value is listed as “inhibition of absoption of the alveolar bone” and the “Absorbance of alveolar bone (average)” value amounted to 41.
